By AUC is commonly meant concentration integrated over time. The term bioavailability denotes the share of a dose that reaches the circulation, judged against a reference dose that is usually intravenous. By pKa is commonly meant the pH at which an ionisable group is half protonated. A word on the IC50: it is the midpoint of a concentration-inhibition curve. Read a low IC50 as greater potency. For orientation: logP means a log measure of how a compound divides between an organic and an aqueous phase. Read a low logP as a more hydrophilic compound. The clearance is the rate of elimination divided by the concentration.

SMILES strings stand for the structures. Converted amounts (≈) assume the structure as drawn.

Data set [1] is described as follows: Volume of distribution at steady state in mouse at 2.5 mg/kg, iv. The class given is ADME, organism-based. Also noted: dose 2.5 mg/kg, route intravenous. The note with it: in vivo, read-out: Vdss.
Data set [2] in a line: AUC in mouse at 30 mg/kg, po dosed in 0.5% methylcellulose/0.2% Tween 80/99.3% water. It counts as ADME, organism-based. Also noted: dose 30 mg/kg, route oral. The note with it: in vivo.
Data set [3] can be described thus: Oral bioavailability in mouse at 30 mg/kg. It counts as ADME, organism-based. To be noted: in vivo.
A short description of data set [4]: AUC in mouse at 30 mg/kg, po dosed as as solution. Set-up: dose 30 mg/kg, route oral. It counts as ADME, organism-based. To be noted: plasma.
The nature of data set [5]: Dissociation constant, pKa of the compound at acidic pH. It counts as physicochemical.
Data set [6] deals with T1, Serine/threonine-protein kinase B-raf (Homo sapiens, UniProt P15056, V600E). Put plainly: Inhibition of His6X-tagged human B-raf V600E mutant expressed in baculovirus infected insect cells coexpressing […] using [gamma33P]ATP after 60 mins by scintillation counting.
A short description of data set [7]: Thermodynamic solubility of the compound at 0.5 mg/ml after 24 hrs by shake flask method at pH 1.2. The class given is physicochemical. To be noted: buffer, read-out: Therm_solubility.
The nature of data set [8]: Lipophilicity, log P of the compound. The class given is physicochemical. The note with it: octanol/water.
Data set [9] can be described thus: Plasma protein binding in mouse. It counts as ADME, cell-free. The note with it: read-out: PPB (converted).
Data set [10] deals with T1, Serine/threonine-protein kinase B-raf. Put plainly: Inhibition of B-raf V600E mutant-mediated Erk phosphorylation in human MALM-3M cells by fluorometric analysis. It counts as cell-based.
Data set [11] in a line: Thermodynamic solubility of the compound at 0.5 mg/ml after 24 hrs by shake flask method at pH 6.5. To be noted: buffer, read-out: Therm_solubility. It counts as physicochemical.
A short description of data set [12]: Clearance in mouse at 2.5 mg/kg, iv. It counts as ADME, organism-based. Also noted: dose 2.5 mg/kg, route intravenous. The note with it: in vivo.
Data set [13] is described as follows: Dissociation constant, pKa of the compound at basic pH. It counts as physicochemical.

T1 sequence (P15056 2-766 V600E limits assumed): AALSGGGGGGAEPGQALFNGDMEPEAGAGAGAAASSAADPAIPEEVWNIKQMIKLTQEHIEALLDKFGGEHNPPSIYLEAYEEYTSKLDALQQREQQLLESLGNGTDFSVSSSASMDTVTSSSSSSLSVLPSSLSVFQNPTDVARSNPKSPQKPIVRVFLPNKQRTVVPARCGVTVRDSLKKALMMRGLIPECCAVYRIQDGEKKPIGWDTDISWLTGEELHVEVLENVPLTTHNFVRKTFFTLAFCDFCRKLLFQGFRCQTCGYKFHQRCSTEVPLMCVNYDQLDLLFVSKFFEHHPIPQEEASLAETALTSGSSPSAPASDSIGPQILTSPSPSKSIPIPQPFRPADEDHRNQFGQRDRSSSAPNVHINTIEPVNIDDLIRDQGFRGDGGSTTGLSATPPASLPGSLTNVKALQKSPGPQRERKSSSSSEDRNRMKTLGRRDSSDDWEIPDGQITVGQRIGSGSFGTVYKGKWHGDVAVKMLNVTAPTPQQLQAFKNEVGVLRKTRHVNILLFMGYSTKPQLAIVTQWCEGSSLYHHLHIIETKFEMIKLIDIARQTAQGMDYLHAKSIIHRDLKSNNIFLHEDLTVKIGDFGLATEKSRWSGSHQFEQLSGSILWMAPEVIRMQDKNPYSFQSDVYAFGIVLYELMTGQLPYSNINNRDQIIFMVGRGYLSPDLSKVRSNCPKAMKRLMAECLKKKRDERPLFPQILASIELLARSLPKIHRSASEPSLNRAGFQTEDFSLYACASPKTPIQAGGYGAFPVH

With `CCCS(=O)(=O)Nc1ccc(F)c(NC(=O)c2cccc3c(N)ncnc23)c1F`, in [1], the Vd was determined as 0.4 L/kg. Further, the values for the AUC in data set [2] and in data set [4] were 290 µM·h and 331 µM·h, respectively. Besides, the bioavailability in data set [3] is 71%. The pKa in data set [5] and in data set [13] was 4.5 throughout. Besides, the IC50 came to 1.8 nM in data set [6] and 9.5 nM in data set [10]. The solubility thermodynamic at 24 h was more than 1000 µg/mL in data set [7] and 1 µg/mL (≈ 2.37 µM) in data set [11]. In addition, in data set [8], the logP amounted to 2.9. Also, in [9], the fraction unbound is 0.015. In [12], this molecule came in with a clearance of 2.5 mL/min/kg.
With `CCCS(=O)(=O)Nc1ccc(Cl)c(NC(=O)c2csc3c(N)ncnc23)c1F`, the 50% inhibitory concentration (IC50) was determined as 0.9 nM in data set [6] and 19 nM in [10].
For `CCCS(=O)(=O)Nc1ccc(F)c(NC(=O)Nc2cc(NCCO)ncn2)c1F`, in data set [7], the solubility thermodynamic at 24 h amounted to 900 µg/mL (≈ 2090 µM). In [10], this molecule came in with an IC50 of 3400 nM.
Turning to `CCCS(=O)(=O)Nc1ccc(F)c(NC(=O)N(C)c2cc(N)ncn2)c1F`, the IC50 in data set [10] worked out at 240 nM.
As to `Nc1ncnc2c(C(=O)Nc3c(Cl)ccc(NS(=O)(=O)CCCF)c3F)cccc12`, the values for the IC50 in [6] and in data set [10] were 0.11 nM and 2.5 nM, respectively.
Regarding `CCCS(=O)(=O)Nc1ccc(F)c(NC(=O)Nc2cc(N)ncn2)c1F`, in [10], the midpoint of inhibition, the IC50, lay at 438 nM.
On to `CCCS(=O)(=O)Nc1ccc(F)c(NC(=O)c2cccc3c(N)ncnc23)c1Cl`, for which the results for the IC50 in [6] and in [10] were 0.54 nM and 7.7 nM, respectively.
The matching figures for `CCCS(=O)(=O)Nc1ccc(F)c(NC(=O)c2csc3c(N)ncnc23)c1Cl`: 1.1 nM and 15 nM.

Source of the values: ChEMBL document CHEMBL2046386, “Potent and selective aminopyrimidine-based B-Raf inhibitors with favorable physicochemical and pharmacokinetic properties” (J Med Chem, 2012).
